Source: patent US20220176011A1, “SCAR REDUCING WOUND CLOSURE MATERIALS” (Lankenau Institute for Medical Research, priority 2019, published 2022)

Tested on: HIF1a protein activity
Experiment: In vitro drug release from suture into DMEM medium, read out by HIF1a luciferase assay
Format: cell-based
Procedure: FIG. 1 is a graph plotting drug release in vitro from poly(lactic acid)/poly(lactic-co-glycolic acid (PLA/PLGA) sutures over time. Briefly, a mixture of PLA and PLA/GPLA suture was infused with 1,4-DPCA molecules during generation of the sutures. The concentration of DPCA was in all cases 5 mg/100 mg suture material as described below. The sutures, having different ratios of PLA and PLA/PLGA as described below, were tested for rate of drug release. Drug release was measured by HIF levels. The sutures were soaked in medium without serum for 24 hours and transferred to new medium for each timepoint identified on the graph. The medium was tested for HIF1a protein activity in a luciferase assay. The horizontal lines are controls as noted: at about 10000 luminescence units (LU) is a control for DMEM only; at about 18000 LU is a control for 25 μM DCPA; at about 29500 LU is a control for 50 μM DCPA; at about 39000 LU is a control for 100 μM DCPA; and at about 40500 LU is a control for 200 μM DCPA. The curve that is substantially at 10000 LU but dips below at day 12 represents a mixture of PLA and PLA/PLGA [50:50] at a ratio of 75 PLA:25 PLA/PLGA. The curve that starts below 10000 LU and increases to about 15000 LU at day 14.5 is PLA and PLA/PLGA [50:50] at a ratio of 75:25+DPCA. The curve that starts above 50000 and has a peak at day 15 above 40000 LU is PLA and PLA/PLGA[50:50] at a ratio of 50:50+DPCA. The curve that starts above 50000 LU and has a peak at day 7.5 at about 34000 LU represents PLA and PLA/PLGA [50:50] at a ratio of 75:25+DPCA.
A PLA/PGLA suture, infused with 1,4-DPCA molecules during generation of the sutures as described in Example 1 (i.e., materials are melted, DPCA added, and the final mixture cooled and pulled into sutures), was tested for rate of release of 1,4-DPCA into DMEM medium. Drug release was measured by HIF levels. The sutures were soaked in medium without serum for 24 hours and transferred to new medium for each timepoint (1 hour, 3 hours, Days 1, 2, 3, 6, 7, 8, 9, 10, 13, 14, 15, 16, 17 and 20). The medium was tested for HIF1a protein activity in a luciferase assay (Signosis, Inc) as described in ESKLA, K-L et al, Hypothermia augments stress response in mammalian cells. Free Radical Biology and Medicine, 2018 doi:10.1016/j.freeradbiomed.2018.04.571.
The results are shown in the graph at FIG. 1. The two heavy lines represented PLA/PLGA[50:50] 50:50+DPCA and PLA/PLGA[50:50] 75:25+DPCA are shown releasing the drug after one hour in the medium up to about 15 days in the medium after which the drug detection falls under the DMEM control.

In the case of `O=C(O)c1c[nH]c2c(ccc3cccnc32)c1=O` [DCPA, 1,4-dihydrophenonthrolin-4-one-3-carboxylic acid], the “luminescence (HIF1a luciferase assay), control line” value (“luminescence” below) (25 μM free drug control) is reported as “about 18000 LU”, the “luminescence” value (50 μM free drug control) is reported as “about 29500 LU” and the “luminescence” value (100 μM free drug control) is reported as “about 39000 LU”. For the same molecule, the “luminescence” value (200 μM free drug control) was “about 40500 LU”.
